Experimental data: ChEMBL document CHEMBL1201862, “PubChem BioAssay data set” (2004)
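These data come from cells grown in 96-well plates and exposed to compound for 48 hours at five concentrations. The concentration for 50% growth inhibition is given as GI50.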 Active and inactive are the calls of the source. Cut-off read from the data, not from the text of the source: active = GI50 up to about 1.1 µM and inactive = higher.

Columns and labels:
Assay in all cases: inhibition of tumour cell growth, NCI panel, 48 h
MDA-MB-435 = system: MDA-MB-435
RXF 393 = system: RXF 393
RPMI-8226 = system: RPMI-8226
ACHN = system: ACHN
A549 = system: A549
DU-145 = system: DU-145
HOP-92 = system: HOP-92
SK-OV-3 = system: SK-OV-3
OVCAR-4 = system: OVCAR-4
SF-295 = system: SF-295
CCRF-CEM = system: CCRF-CEM
MDA-N = system: MDA-N
HL-60 = system: HL-60
COLO 205 = system: COLO 205
MCF7 = system: MCF7
SK-MEL-2 = system: SK-MEL-2
NCI/ADR-RES = system: NCI/ADR-RES
NCI-H23 = system: NCI-H23
OVCAR-3 = system: OVCAR-3
HT-29 = system: HT-29
UACC-257 = system: UACC-257
TK-10 = system: TK-10
M14 = system: M14
SK-MEL-5 = system: SK-MEL-5
Malme-3M = system: Malme-3M
OVCAR-5 = system: OVCAR-5
EKVX = system: EKVX
IGROV-1 = system: IGROV-1
NCI-H522 = system: NCI-H522
PC-3 = system: PC-3
SW-620 = system: SW-620
T47D = system: T47D
SNB-75 = system: SNB-75
HCT-15 = system: HCT-15
UACC-62 = system: UACC-62
KM12 = system: KM12
SN12C = system: SN12C
786-0 = system: 786-0
MOLT-4 = system: MOLT-4
HOP-62 = system: HOP-62
UO-31 = system: UO-31
Hs-578T = system: Hs-578T
CAKI-1 = system: CAKI-1
NCI-H226 = system: NCI-H226
SNB-19 = system: SNB-19
U-251 = system: U-251
HCC 2998 = system: HCC 2998
NCI-H460 = system: NCI-H460
OVCAR-8 = system: OVCAR-8
BT-549 = system: BT-549
SF-268 = system: SF-268
HCT-116 = system: HCT-116
A498 = system: A498
SF-539 = system: SF-539
K562 = system: K562
MDA-MB-231 = system: MDA-MB-231
LOX IMVI = system: LOX IMVI

What does the source list for `O=c1ccc2nc3ccc(O)cc3oc-2c1`?
GI50 (MDA-MB-435): 1.83 µM (inactive); GI50 (RXF 393): > 100 µM (inactive); GI50 (RPMI-8226): 3.3 µM (inactive); GI50 (ACHN): 8.11 µM (inactive); GI50 (A549): 4.27 µM (inactive); GI50 (DU-145): 21 µM (inactive); GI50 (HOP-92): > 100 µM (inactive); GI50 (SK-OV-3): > 100 µM (inactive); GI50 (OVCAR-4): > 68.1 µM (inactive); GI50 (SF-295): 8.49 µM (inactive); GI50 (CCRF-CEM): 34 µM (inactive); GI50 (MDA-N): 1.91 µM (inactive); GI50 (HL-60): 10.5 µM (inactive); GI50 (COLO 205): 6.25 µM (inactive); GI50 (MCF7): 5.07 µM (inactive); GI50 (SK-MEL-2): 12.8 µM (inactive); GI50 (NCI/ADR-RES): 19.5 µM (inactive); GI50 (NCI-H23): 3.56 µM (inactive); GI50 (OVCAR-3): 10.5 µM (inactive); GI50 (HT-29): 24 µM (inactive); GI50 (UACC-257): 8.69 µM (inactive); GI50 (TK-10): > 72.1 µM (inactive); GI50 (M14): 4.3 µM (inactive); GI50 (SK-MEL-5): 1.6 µM (inactive); GI50 (Malme-3M): 2.72 µM (inactive); GI50 (OVCAR-5): > 100 µM (inactive); GI50 (EKVX): > 100 µM (inactive); GI50 (IGROV-1): 39.5 µM (inactive); GI50 (NCI-H522): 5.32 µM (inactive); GI50 (PC-3): 4.69 µM (inactive); GI50 (SW-620): 13.2 µM (inactive); GI50 (T47D): > 100 µM (inactive); GI50 (SNB-75): 6.78 µM (inactive); GI50 (HCT-15): 13.5 µM; GI50 (UACC-62): 2.7 µM (inactive); GI50 (KM12): 5.6 µM (inactive); GI50 (SN12C): > 100 µM (inactive); GI50 (786-0): 13.4 µM (inactive); GI50 (MOLT-4): 34 µM (inactive); GI50 (HOP-62): 17 µM (inactive); GI50 (UO-31): 5.75 µM (inactive); GI50 (Hs-578T): 6.92 µM (inactive); GI50 (CAKI-1): > 67.9 µM (inactive); GI50 (NCI-H226): 27.8 µM (inactive); GI50 (SNB-19): 38.6 µM (inactive); GI50 (U-251): 26.8 µM (inactive); GI50 (HCC 2998): 25.6 µM (inactive); GI50 (NCI-H460): 12 µM (inactive); GI50 (OVCAR-8): 16.4 µM (inactive); GI50 (BT-549): 7.24 µM (inactive); GI50 (SF-268): 28.8 µM (inactive); GI50 (HCT-116): 16.4 µM (inactive); GI50 (A498): 35.2 µM (inactive); GI50 (SF-539): 4.7 µM (inactive); GI50 (K562): 6.1 µM (inactive); GI50 (MDA-MB-231): > 100 µM (inactive); GI50 (LOX IMVI): 2.75 µM (inactive)
